Reference: patent publication EP0335637A2, “Nerve growth factor peptides” (THE REGENTS OF THE UNIVERSITY OF CALIFORNIA, priority 1988, dated 1989)
Where a SMILES comes first, the peptide text is derived from it.

What was measured:
[1] = Resistance to proteolysis during cell culture (HPLC recovery); type: in vitro ADME; conditions: after 24 hr in culture; 2.0 µmole/ml peptide, 100 pg/ml NGF and cells
Protocol: The resistance of peptide C5 to proteolytic cleavage during cell culture was assessed. Quadruplicate wells were prepared each containing 2.Oµ mole/ml of peptide in culture medium, 100 pg/ml NGF and cells as described above. After 24 hr in culture, 320 ul (4 wells x 80 ul) of culture medium were collected. Fresh culture medium containing 2.0 µmole/ml of peptide was also prepared. Both samples of peptide-containing medium were filtered through a Centricon membrane (Amicon, Bedford) with a molecular weight cutoff of 10,000. 250 µl of filtrate was loaded onto a C18 uBondapak analytic HPLC column and run under the same conditions described above for peptide purification. The quantity of peptides in fresh compared to post-culture medium was determined by integration of their absorbance peaks. After 24 hr in culture, more than 80-85% of the initial quantity of peptide C5 was recovered.

[2] = system: embryologic day 10 dorsal root ganglia neurons; experiment: NGF-independent neurite outgrowth in response to CNTF (nonspecific toxicity check); type: cell-based, chick; conditions: C5 up to 2.6p moles/ml (Figure 3)
Protocol: Potential nonspecific toxicity of peptide C5 (KGKE) was investigated with embryologic day 10 dorsal root ganglia neurons which also extend neurites in the presence of ciliary neurotrophic factor (CNTF). The effect of peptide C5 on NGF-independent neurite outgrowth was assessed.

initial quantity of peptide recovered [1]: 80-85%
Structure (SMILES): NCCCC[C@H](NC(=O)CNC(=O)[C@@H](N)CCCCN)C(=O)N[C@@H](CCC(=O)O)C(N)=O [C5, KGKE] (H-KGKE-NH2)
effect on number of neurons bearing neurites in response to CNTF [2]: no detectable effect
